Measurements reported in ChEMBL document CHEMBL1130816, “Synthesis and antibacterial activity of O-methyl derivatives of azalide antibiotics: II. 6-OME derivatives via clarithromycin” (1998).
Values after ≈ are worked out from the molar mass of the structure shown.

Legend:
Format in all cases: functional
Streptococcus pneumoniae = experiment: Compound was evaluated for antibacterial activity against Streptococcus pneumoniae (MB3957) sensitive strain
Streptococcus pyogenes = experiment: Compound was evaluated for antibacterial activity against Streptococcus pyogenes (MB2874) sensitive strain
Enterococcus faecalis = experiment: Compound was evaluated for antibacterial activity against Enterococcus faecalis (MB5407) sensitive strain
Enterococcus faecium = experiment: Compound was evaluated for antibacterial activity against Enterococcus faecium (MB5516) sensitive strain
Staphylococcus aureus = experiment: Compound was evaluated for antibacterial activity against Staphylococcus aureus (MB2865) sensitive strain
Bacillus subtilis = experiment: Compound was evaluated for antibacterial activity against Bacillus subtilis (MB5586) sensitive strain

Compound | MIC (Streptococcus pneumoniae) | MIC (Streptococcus pyogenes) | MIC (Enterococcus faecalis) | MIC (Enterococcus faecium) | MIC (Staphylococcus aureus) | MIC (Bacillus subtilis)
CC[C@H]1OC(=O)[C@H](C)[C@@H](O[C@H]2C[C@@](C)(OC)[C@@H](OC)[C@@H](C)O2)[C@H](C)[C@@H](O[C@@H]2O[C@H](C)C[C@@H](N(C)C)[C@H]2O)[C@](C)(O)C[C@@H](C)N(C)C[C@H](C)[C@@H](OC)[C@]1(C)OC | 4 µg/mL (≈ 5.06 µM) | 0.5 µg/mL (≈ 0.632 µM) | 32 µg/mL (≈ 40.5 µM) | 8 µg/mL (≈ 10.1 µM) | 32 µg/mL (≈ 40.5 µM) | 2 µg/mL (≈ 2.53 µM)
CC[C@H]1OC(=O)[C@H](C)[C@@H](O[C@H]2C[C@@](C)(OC)[C@@H](O)[C@@H](C)O2)[C@H](C)[C@@H](O[C@@H]2O[C@H](C)C[C@@H](N(C)C)[C@H]2O)[C@](C)(OC)C[C@@H](C)N(C)C[C@H](C)[C@@H](O)[C@]1(C)O | 0.5 µg/mL (≈ 0.655 µM) | 0.06 µg/mL (≈ 0.0786 µM) | 16 µg/mL (≈ 21 µM) | 1 µg/mL (≈ 1.31 µM) | 2 µg/mL (≈ 2.62 µM) | 1 µg/mL (≈ 1.31 µM)
CC[C@H]1OC(=O)[C@H](C)[C@@H](O[C@H]2C[C@@](C)(OC)[C@H](O)[C@H](C)O2)[C@H](C)[C@@H](O[C@@H]2O[C@H](C)C[C@H](N(C)C)[C@H]2O)[C@](C)(O)C[C@@H](C)N(C)C[C@H](C)[C@@H](O)[C@]1(C)O | < 0.06 µg/mL | < 0.06 µg/mL | 2 µg/mL (≈ 2.67 µM) | 0.125 µg/mL (≈ 0.167 µM) | 0.3 µg/mL (≈ 0.401 µM) | 0.3 µg/mL (≈ 0.401 µM)
CC[C@H]1OC(=O)[C@H](C)[C@@H](O[C@H]2C[C@@](C)(OC)[C@@H](OC)[C@@H](C)O2)[C@H](C)[C@@H](O[C@@H]2O[C@H](C)C[C@@H](N(C)C)[C@H]2O)[C@](C)(OC)C[C@@H](C)N(C)C[C@H](C)[C@@H](OC)[C@]1(C)OC | 4 µg/mL (≈ 4.97 µM) | 0.5 µg/mL (≈ 0.621 µM) | 32 µg/mL (≈ 39.7 µM) | 8 µg/mL (≈ 9.94 µM) | 32 µg/mL (≈ 39.7 µM) | 8 µg/mL (≈ 9.94 µM)
CC[C@H]1OC(=O)[C@H](C)[C@@H](O[C@H]2C[C@@](C)(OC)[C@@H](O)[C@@H](C)O2)[C@H](C)[C@@H](O[C@@H]2O[C@H](C)C[C@@H](N(C)C)[C@H]2O)[C@](C)(OC)C[C@@H](C)CN(C)[C@H](C)[C@@H](O)[C@]1(C)O | 0.5 µg/mL (≈ 0.655 µM) | 0.12 µg/mL (≈ 0.157 µM) | 8 µg/mL (≈ 10.5 µM) | 1 µg/mL (≈ 1.31 µM) | 2 µg/mL (≈ 2.62 µM) | 1 µg/mL (≈ 1.31 µM)
CC[C@H]1OC(=O)[C@H](C)[C@@H](O[C@H]2C[C@@](C)(OC)[C@@H](O)[C@H](C)O2)[C@H](C)[C@@H](O[C@@H]2O[C@H](C)C[C@H](N(C)C)[C@H]2O)[C@](C)(O)C[C@@H](C)CN(C)[C@H](C)[C@@H](O)[C@]1(C)O [AZITHROMYCIN] | < 0.06 µg/mL | 0.03 µg/mL (≈ 0.0401 µM) | 4 µg/mL (≈ 5.34 µM) | 0.25 µg/mL (≈ 0.334 µM) | 0.5 µg/mL (≈ 0.668 µM) | 1 µg/mL (≈ 1.34 µM)
CC[C@H]1OC(=O)[C@H](C)[C@@H](O[C@H]2C[C@@](C)(OC)[C@@H](OC)[C@@H](C)O2)[C@H](C)[C@@H](O[C@@H]2O[C@H](C)C[C@@H](N(C)C)[C@H]2O)[C@](C)(O)C[C@@H](C)N(C)C[C@H](C)[C@@H](O)[C@]1(C)O | 0.5 µg/mL (≈ 0.655 µM) | 0.03 µg/mL (≈ 0.0393 µM) | 8 µg/mL (≈ 10.5 µM) | 2 µg/mL (≈ 2.62 µM) | 8 µg/mL (≈ 10.5 µM) | 4 µg/mL (≈ 5.24 µM)
